Laboratory results published in patent US20120135923A1, “Use of Melanocortins to Treat Dyslipidemia” (IPSEN PHARMA, S.A.S., priority 2009, published 2012).
Read-outs that look alike come from different tables or passages of the source. Bridge positions count the residues as written; N and C are the ends. Square brackets hold non-standard residues; d marks the D form. Peptide text beside a SMILES is read from it. Bta = N[C@@H](Cc1csc2ccccc12)C(=O)O; Pen = CC(C)(S)[C@H](N)C(=O)O; Nle = CCCC[C@H](N)C(=O)O; Ava = NCCCCC(=O)O; GABA = NCCCC(=O)O

Assays:
Assay in all cases: cyclic AMP bioassay (ECL) in CHO-K1 cells
Format in all cases: cell-based
hMC1-R = molecular target: T1, hMC1-R (Homo sapiens, UniProt Q01726)
T1 construct: expressed in transfected cells; host or cells: CHO-K1

hMC4-R = molecular target: T2, hMC4-R (Homo sapiens, UniProt P32245)
T2 construct: expressed in transfected cells; host or cells: CHO-K1

hMC3-R = molecular target: T3, hMC3-R (Homo sapiens, UniProt P41968)
T3 construct: expressed in transfected cells; host or cells: CHO-K1

hMC5-R = molecular target: T4, hMC5-R (Homo sapiens, UniProt P33032)
T4 construct: expressed in transfected cells; host or cells: CHO-K1

[1] = Table 9A/9B, read-out: EC50 hMC1-R
[2] = Table 9A/9B, read-out: EC50 hMC4-R
[3] = Table 9A/9B, read-out: EC50 hMC3-R
[4] = Table 9A/9B, read-out: EC50 hMC5-R

T2 sequence (P32245 whole entry): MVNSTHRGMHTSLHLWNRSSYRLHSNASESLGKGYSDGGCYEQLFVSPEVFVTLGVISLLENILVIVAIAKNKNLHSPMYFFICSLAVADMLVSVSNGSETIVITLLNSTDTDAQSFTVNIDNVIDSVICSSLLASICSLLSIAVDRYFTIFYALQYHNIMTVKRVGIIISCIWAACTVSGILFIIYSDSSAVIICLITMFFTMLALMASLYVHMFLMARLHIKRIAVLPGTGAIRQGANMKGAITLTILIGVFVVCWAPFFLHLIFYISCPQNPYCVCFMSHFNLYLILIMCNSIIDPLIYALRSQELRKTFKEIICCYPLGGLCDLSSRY
T1 sequence (Q01726 whole entry): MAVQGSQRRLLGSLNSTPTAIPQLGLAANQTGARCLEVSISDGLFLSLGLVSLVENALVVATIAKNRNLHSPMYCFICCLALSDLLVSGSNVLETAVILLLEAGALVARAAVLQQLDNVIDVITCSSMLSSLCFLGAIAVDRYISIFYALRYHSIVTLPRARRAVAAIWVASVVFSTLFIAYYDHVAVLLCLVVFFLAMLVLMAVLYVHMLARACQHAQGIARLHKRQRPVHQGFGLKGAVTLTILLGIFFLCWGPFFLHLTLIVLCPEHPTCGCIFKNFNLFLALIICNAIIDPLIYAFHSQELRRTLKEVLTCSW
T4 sequence (P33032 whole entry): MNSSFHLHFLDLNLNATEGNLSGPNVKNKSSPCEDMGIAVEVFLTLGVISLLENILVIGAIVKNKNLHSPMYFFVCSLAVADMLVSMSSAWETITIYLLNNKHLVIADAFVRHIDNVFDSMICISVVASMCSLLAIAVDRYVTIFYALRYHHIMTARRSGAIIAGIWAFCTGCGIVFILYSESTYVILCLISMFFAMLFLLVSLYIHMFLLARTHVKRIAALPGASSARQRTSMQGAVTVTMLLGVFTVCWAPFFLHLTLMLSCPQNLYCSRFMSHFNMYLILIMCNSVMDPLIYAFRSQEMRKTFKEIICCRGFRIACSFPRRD
T3 sequence (P41968 whole entry): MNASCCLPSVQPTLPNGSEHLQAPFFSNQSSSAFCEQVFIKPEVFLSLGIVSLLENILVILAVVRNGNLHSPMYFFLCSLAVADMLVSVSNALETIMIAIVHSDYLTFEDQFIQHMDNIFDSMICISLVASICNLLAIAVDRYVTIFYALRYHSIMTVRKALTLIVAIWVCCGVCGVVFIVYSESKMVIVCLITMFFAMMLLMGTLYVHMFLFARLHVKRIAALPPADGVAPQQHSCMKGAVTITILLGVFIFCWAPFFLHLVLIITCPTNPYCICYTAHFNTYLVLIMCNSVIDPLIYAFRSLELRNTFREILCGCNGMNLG

| EC50 (hMC1-R; [1]) [nM] | EC50 (hMC4-R; [2]) [nM] | EC50 (hMC3-R; [3]) [nM] | EC50 (hMC5-R; [4]) [nM] | EC50 (hMC1-R; Table 11, read-out: EC50 hMC1) [nM] | EC50 (hMC4-R; Table 11, read-out: EC50 hMC4) [nM] | EC50 (hMC3-R; Table 11, read-out: EC50 hMC3) [nM] | EC50 (hMC5-R; Table 11, read-out: EC50 hMC5) [nM] | Compound |
| --- | --- | --- | --- | --- | --- | --- | --- | --- |
| 0.931 | 1.65 | 3.22 | > 10000 | – | – | – | – | CCCC[C@H](NC(C)=O)C(=O)N[C@H]1CC(=O)NCCCC[C@@H](C(N)=O)NC(=O)[C@H](Cc2csc3ccccc23)NC(=O)[C@H](CCCNC(=N)N)NC(=O)[C@@H](Cc2ccccc2)NC(=O)[C@H](Cc2c[nH]cn2)NC(=O)[C@@H](C)NC1=O [Ac-Nle-c(Asp-D-Ala-His-D-Phe-Arg-Bal-Lys)-NH2] (Ac-[Nle]D[dA]H[dF]R[Bta]K-NH2; lactam 2-8) |
| 1.37 | 0.131 | 0.628 | 3.48 | – | – | – | – | CCCC[C@H](NC(C)=O)C(=O)N[C@H]1CC(=O)NCCCC[C@@H](C(N)=O)NC(=O)CCCNC(=O)[C@H](Cc2c[nH]c3ccccc23)NC(=O)[C@H](CCCNC(=N)N)NC(=O)[C@@H](Cc2ccccc2)NC(=O)[C@H](Cc2c[nH]cn2)NC1=O [Ac-Nle-c(Asp-His-D-Phe-Arg-Trp-Gaba-Lys)-NH2] |
| 0.834 | 0.128 | 0.145 | 2.79 | – | – | – | – | CCCC[C@H](NC(C)=O)C(=O)N[C@H]1CC(=O)NCCCC[C@@H](C(N)=O)NC(=O)CCNC(=O)[C@H](Cc2c[nH]c3ccccc23)NC(=O)[C@H](CCCNC(=N)N)NC(=O)[C@@H](Cc2ccccc2)NC(=O)[C@H](Cc2c[nH]cn2)NC1=O [Ac-Nle-c(Asp-His-D-Phe-Arg-Trp-β-Ala-Lys)-NH2] |
| 3.24 | 0.0915 | 0.465 | 78.5 | – | – | – | – | CCCC[C@H](NC(C)=O)C(=O)N[C@H]1CSSC[C@@H](C(N)=O)NC(=O)[C@H](Cc2c[nH]c3ccccc23)NC(=O)[C@H](CCCNC(=N)N)NC(=O)[C@@H](Cc2ccccc2)NC(=O)[C@H](Cc2c[nH]cn2)NC(=O)[C@@H](CC(C)C)NC1=O [Ac-Nle-c(Cys-D-Leu-His-D-Phe-Arg-Trp-Cys)-NH2] |
| 0.76 | 0.0492 | 0.199 | 1.73 | – | – | – | – | CCCC[C@H](NC(C)=O)C(=O)N[C@H]1CSSC[C@@H](C(N)=O)NC(=O)CCCCNC(=O)[C@H](Cc2c[nH]c3ccccc23)NC(=O)[C@H](CCCNC(=N)N)NC(=O)[C@@H](Cc2ccccc2)NC(=O)[C@H](Cc2c[nH]cn2)NC1=O [Ac-Nle-c(Cys-His-D-Phe-Arg-Trp-Apn-Cys)-NH2] (Ac-[Nle]CH[dF]RW[Ava]C-NH2; disulfide 2-8) |
| 0.28 | 0.028 | 0.24 | 3.9 | – | – | – | – | CCCC[C@H](NC(C)=O)C(=O)N[C@H]1CSSC(C)(C)[C@@H](C(N)=O)NC(=O)CCCNC(=O)[C@H](Cc2c[nH]c3ccccc23)NC(=O)[C@H](CCCNC(=N)N)NC(=O)[C@@H](Cc2ccccc2)NC(=O)[C@H](Cc2c[nH]cn2)NC1=O [Ac-Nle-c(Cys-His-D-Phe-Arg-Trp-Gaba-Pen)-NH2] (Ac-[Nle]CH[dF]RW[GABA][Pen]-NH2; disulfide 2-8) |
| 2.27 | 7.24 | 3.32 | 415 | – | – | – | – | CC(=O)N[C@@H](CCC1CCCCC1)C(=O)N[C@H]1CC(=O)NCCCC[C@@H](C(N)=O)NC(=O)CCCNC(=O)[C@H](Cc2c[nH]c3ccccc23)NC(=O)[C@H](CCCNC(=N)N)NC(=O)[C@@H](Cc2ccccc2)NC(=O)[C@H](Cc2c[nH]cn2)NC1=O [Ac-hCha-c(Asp-His-D-Phe-Arg-Trp-Gaba-Lys)-NH2] |
| – | – | – | – | 8.83 | 0.0979 | 7.86 | 4010 | N=C(N)NCCC[C@@H]1NC(=O)[C@@H](Cc2ccccc2)NC(=O)[C@H](Cc2c[nH]cn2)NC(=O)[C@H](CCC(=O)O)NC(=O)[C@@H](NC(=O)CN2C(=O)N[C@@H](CCCNC(=N)N)C2=O)CSSC[C@@H](C(N)=O)NC(=O)[C@H](Cc2c[nH]c3ccccc23)NC1=O [Hydantoin(C(O)-(Arg-Gly))-c(Cys-Glu-His-D-Phe-Arg-Trp-Cys)-NH2] |
